# In patent US8858952B2, “Methods and materials for generating T cells” (Mayo Foundation for Medical Education and Research, priority 2009, dated 2014):
# Entries after “also recorded” stand apart in the source; their conditions may differ. Where no end group is shown, it is not given here. [ ]: non-standard residue; d: D form. Ava = NCCCCC(=O)O
# Tests used:
# bone marrow-derived DC = experiment: Cytokine and chemokine multiplex analysis of DC culture supernatant; format: cell-based; conditions: DC culture media 48 hours after pulsing, versus native FR74
# Protocol: FIG. 14. […] Shown are the concentrations of cytokines within DC culture media 48 hours after pulsing with the indicated polypeptides. Each bar is the mean (±s.e.m.) of duplicates samples. A repeat experiment yielded similar results.
# FIG. 15. […] Shown are the concentrations of chemokines within DC culture media 48 hours after pulsing with the indicated polypeptides. Each bar is the mean (±s.e.m.) of duplicate samples. A repeat experiment yielded similar results.
# FIG. 24. Modified polypeptides induce different release of IL-6 and IL-12p70. Shown are the concentrations of IL-6 and IL-12p70 within DC culture media 48 hours after pulsing with the indicated polypeptides. Each bar is the mean (±s.e.m.) of duplicate samples. A repeat experiment yielded similar results. Values associate with each bar are the actual mean concentrations measured.
# Another potential reason for the enhanced T cell activation is that epitope nesting results in enhancement of cytokines that facilitate the induction of T cell activation. […]
# This hypothesis is tested using antibody neutralization. […] Cytokine levels in the sera are quantitated by analyzing 100 μL of each well on a Bio-Plex using Bio-Plex Manager software (ver.4.). […] Both the DC and the T cells can be assessed for expression of the receptors using flow cytometry. […]
# Foxp3^+ T cells = experiment: Flow cytometry of CD4 T cell lines for FoxP3 expression; format: cell-based, FVB/N mice; conditions: FIG. 31
# From the text: FIG. 31. […] Flow cytometry dot plots of naïve splenocytes, FR74-specific, FR74.4-specific CD4 T cell lines evaluating for FoxP3 expression. Quadrants set at isotype signal, and the lower right quadrant is percent of total cells in lymphocyte gate. T cells were derived from FVB/N mice.
substance,measurement,setting,value
FR74.4: dual conjugated polypeptide: FR74 nested between Ii-key and DC3 (Ac-LRMK[Ava]KDISYLYRFNWNHCGRARRFYPSYHSTPQRP),cytokine release by DC,bone marrow-derived DC; FIG. 14,"selectively induces expression of IL-1α, IL-6, IL-12p70, IL-13 and TNF-α; also recorded: enhanced the release of IL-1α, IL-6, and IL-12p70"
same,chemokine levels produced by DC,bone marrow-derived DC; FIG. 15,"significantly higher levels of the T cell attracting chemokines, CCL7 (MCP-3), CCL1 (KC) CXCL10 (IP-10); also recorded: elevated levels of CCL7, CXCL1, and CXCL10"
same,expansion of Foxp3+ T cells,Foxp3^+ T cells,blocks expansion of Foxp3^+ T cells
